In brackets after ≈: the same amount, converted by molar mass.
Tested on: RSV A2
Assay: RSV antiviral cytopathic effect (CPE) assay, MTT readout
Type: cell-based
Settings: human respiratory syncytial virus, HEp-2, 120 h; RSV A2 in HEp2 cells, CPE assay, MTT, approx. 5 days; read-out: Activity Range (RSV A2 antiviral EC50), compounds of Table 3
Method: Method Q: RSV Antiviral Assay Protocol
Compounds of the invention were tested for their antiviral activity against respiratory syncytial virus. Cytopathic effect (CPE) assays were performed essentially as described in the literature (see for example Watanabe et al, 1. Virological Methods, 1994, 48, 257). Serial dilutions of the test compounds were made in assay medium. HEp2 cells (1.0×10^4 cells/well) were infected with RSV at a low multiplicity of infection (e.g. RSV A2 at an moi of 0.01) and 100 μL added to cultures assessing antiviral activity and cells without virus added to those assessing compound cytotoxicity. Assays were incubated for approximately 5 days at 37° C. in a 5% CO2 atmosphere. The extent of CPE was determined via metabolism of the vital dye 3-(4,5-dimethylthiaxol-2-yl)-2,5-diphenyltetrazolium bromide (MTT). A 3 mg/ml stock of MTT was made in assay medium and 100 μL added to each well, taking the final MTT concentration to […]. After 2 hours incubation at 37° C., the media-MTT solution was removed and 200 μL of isopropanol was added to dissolve the vital dye crystals. Plates were shaken and the absorbance read at 540 nm. The compound concentrations that inhibited CPE by 50% (EC50) and developed cytotoxicity (CC50) were calculated using an Excel curve fitting program.

Structure (SMILES) | EC50
CCCCC#Cc1cncc(C(=O)N2CCN3C(=O)c4ccncc4C23c2ccc(Cl)cc2)c1 (stereo not shown) [Compound 408] | 0.25 to 1 µg/mL (≈ 0.531 to 2.12 µM)
O=C(c1ccco1)N1CCN2C(=O)c3ccncc3C12c1ccc(Cl)cc1 (stereo not shown) [Compound 413] | < 0.1 µg/mL
O=C(c1ccoc1)N1CCN2C(=O)c3ccncc3C12c1ccc(Cl)cc1 (stereo not shown) [Compound 414] | < 0.1 µg/mL
O=C(c1ccc(C#Cc2ccccc2)o1)N1CCN2C(=O)c3ccncc3C12c1ccc(Cl)cc1 (stereo not shown) [Compound 416] | 0.25 to 1 µg/mL (≈ 0.521 to 2.08 µM)
Cc1cc(C(=O)N2CCN3C(=O)c4ccncc4C32c2ccc(Cl)cc2)n(C)n1 (stereo not shown) [Compound 420] | 0.25 to 1 µg/mL (≈ 0.613 to 2.45 µM)
CCn1nc(C)cc1C(=O)N1CCN2C(=O)c3ccncc3C21c1ccc(Cl)cc1 (stereo not shown) [Compound 422] | 0.25 to 1 µg/mL (≈ 0.593 to 2.37 µM)
O=C(c1csc([N+](=O)[O-])c1)N1CCN2C(=O)c3ccncc3C12c1ccc(Cl)cc1 (stereo not shown) [Compound 434] | 0.25 to 1 µg/mL (≈ 0.567 to 2.27 µM)
COc1c(C(=O)N2CCN3C(=O)c4ccncc4C32c2ccc(Cl)cc2)csc1Cl (stereo not shown) [Compound 436] | 0.1 to 0.25 µg/mL (≈ 0.217 to 0.543 µM)
O=C(c1ccc(Br)s1)N1CCN2C(=O)c3ccncc3C12c1ccc(Cl)cc1 (stereo not shown) [Compound 437] | 0.25 to 1 µg/mL (≈ 0.527 to 2.11 µM)
O=C1c2ccncc2C2(c3ccc(Cl)cc3)N1CCN2C(=O)c1sccc1Cl (stereo not shown) [Compound 442] | < 0.1 µg/mL
Cc1nc(C(=O)N2CCN3C(=O)c4ccncc4C23c2ccc(Cl)cc2)cs1 (stereo not shown) [Compound 444] | 0.1 to 0.25 µg/mL (≈ 0.243 to 0.608 µM)
O=C1c2ccncc2C2(c3ccc(Cl)cc3)N1CCN2C(=O)c1sccc1Br (stereo not shown) [Compound 445] | < 0.1 µg/mL
O=C(c1ccno1)N1CCN2C(=O)c3ccncc3C12c1ccc(Cl)cc1 (stereo not shown) [Compound 448] | 0.1 to 0.25 µg/mL (≈ 0.263 to 0.657 µM)
Cc1csc(C(=O)N2CCN3C(=O)c4ccncc4C32c2ccc(Cl)cc2)c1Cl (stereo not shown) [Compound 450] | 0.1 to 0.25 µg/mL (≈ 0.225 to 0.563 µM)
O=C(c1cccc(Cl)n1)N1CCN2C(=O)c3ccncc3C12c1ccc(Cl)cc1 (stereo not shown) [Compound 453] | < 0.1 µg/mL
O=C(c1csnn1)N1CCN2C(=O)c3ccncc3C12c1ccc(Cl)cc1 (stereo not shown) [Compound 456] | < 0.1 µg/mL
O=C(c1csc(-c2ccncc2)n1)N1CCN2C(=O)c3ccncc3C12c1ccc(Cl)cc1 (stereo not shown) [Compound 457] | 0.25 to 1 µg/mL (≈ 0.527 to 2.11 µM)
Cc1nc(-c2cnccn2)sc1C(=O)N1CCN2C(=O)c3ccncc3C21c1ccc(Cl)cc1 (stereo not shown) [Compound 458] | 0.1 to 0.25 µg/mL (≈ 0.205 to 0.511 µM)
O=C1c2ccncc2C2(c3ccc(Cl)cc3)N1CCN2C(=O)c1ncoc1-c1ccccc1 (stereo not shown) [Compound 463] | < 0.1 µg/mL
CC(C)c1nnsc1C(=O)N1CCN2C(=O)c3ccncc3C21c1ccc(Cl)cc1 (stereo not shown) [Compound 464] | 0.25 to 1 µg/mL (≈ 0.568 to 2.27 µM)
Cn1cc(C(=O)N2CCN3C(=O)c4ccncc4C32c2ccc(Cl)cc2)c(C(F)(F)F)n1 (stereo not shown) [Compound 467] | < 0.1 µg/mL
Cc1nc(-c2ccccc2)sc1C(=O)N1CCN2C(=O)c3ccncc3C21c1ccc(Cl)cc1 (stereo not shown) [Compound 468] | 0.25 to 1 µg/mL (≈ 0.513 to 2.05 µM)

Next, values leading:

EC50 | Structure (SMILES)
0.1 to 0.25 µg/mL (≈ 0.211 to 0.529 µM) | O=C(c1cncc(-c2cccs2)c1)N1CCN2C(=O)c3ccncc3C12c1ccc(Cl)cc1 (stereo not shown) [Compound 409]
< 0.1 µg/mL | Cc1cc(C(=O)N2CCN3C(=O)c4ccncc4C32c2ccc(Cl)cc2)c(C)o1 (stereo not shown) [Compound 412]
0.25 to 1 µg/mL (≈ 0.613 to 2.45 µM) | Cc1cc(C(=O)N2CCN3C(=O)c4ccncc4C23c2ccc(Cl)cc2)oc1C (stereo not shown) [Compound 415]
0.25 to 1 µg/mL (≈ 0.613 to 2.45 µM) | Cc1cc(C(=O)N2CCN3C(=O)c4ccncc4C23c2ccc(Cl)cc2)nn1C (stereo not shown) [Compound 421]
0.25 to 1 µg/mL (≈ 0.548 to 2.19 µM) | O=C1c2ccncc2C2(c3ccc(Cl)cc3)N1CCN2C(=O)c1ccnn1-c1ccccc1 (stereo not shown) [Compound 423]
< 0.1 µg/mL | O=C(c1ccsc1)N1CCN2C(=O)c3ccncc3C12c1ccc(Cl)cc1 (stereo not shown) [Compound 430]
< 0.1 µg/mL | O=C(c1cccs1)N1CCN2C(=O)c3ccncc3C12c1ccc(Cl)cc1 (stereo not shown) [Compound 431]
0.25 to 1 µg/mL (≈ 0.495 to 1.98 µM) | COc1c(C(=O)N2CCN3C(=O)c4ccncc4C32c2ccc(Cl)cc2)csc1Br (stereo not shown) [Compound 438]
0.1 to 0.25 µg/mL (≈ 0.235 to 0.587 µM) | COc1cscc1C(=O)N1CCN2C(=O)c3ccncc3C12c1ccc(Cl)cc1 (stereo not shown) [Compound 441]
< 0.1 µg/mL | CCOc1ccsc1C(=O)N1CCN2C(=O)c3ccncc3C21c1ccc(Cl)cc1 (stereo not shown) [Compound 449]
0.1 to 0.25 µg/mL (≈ 0.212 to 0.529 µM) | CSc1ncc(Cl)c(C(=O)N2CCN3C(=O)c4ccncc4C32c2ccc(Cl)cc2)n1 (stereo not shown) [Compound 454]
0.25 to 1 µg/mL (≈ 0.64 to 2.56 µM) | O=C(c1ccccn1)N1CCN2C(=O)c3ccncc3C12c1ccc(Cl)cc1 (stereo not shown) [Compound 455]
< 0.1 µg/mL | O=C1c2ccncc2C2(c3ccc(Cl)cc3)N1CCN2C(=O)c1nsc(Cl)c1Cl (stereo not shown) [Compound 461]
< 0.1 µg/mL | COc1ccc(-c2ocnc2C(=O)N2CCN3C(=O)c4ccncc4C32c2ccc(Cl)cc2)cc1 (stereo not shown) [Compound 462]
0.25 to 1 µg/mL (≈ 0.513 to 2.05 µM) | COc1ccc(-c2cc(C(=O)N3CCN4C(=O)c5ccncc5C34c3ccc(Cl)cc3)on2)cc1 (stereo not shown) [Compound 465]

Source: US8598193B2, “Polycyclic agents for the treatment of respiratory syncytial virus infections” (Biota Scientific Management Pty Ltd., priority 2003, dated 2013)
